In PMC9645344, “Serotonin-releasing agents with reduced off-target effects” (Molecular Psychiatry, 2022):

Legend:
Type in all cases: cell-based
[1] = molecular target: T1, 5-HT2C receptor (Homo sapiens, UniProt P28335); assay: 5-HT receptor-dependent induction of GCamP6s fluorescence in HEK293 cells; details: 1 µM; GCamP6s fluorescence normalized to 1 µM 5-HT
T1 construct: expressed in transfected cells
T1 sequence (P28335 33-458): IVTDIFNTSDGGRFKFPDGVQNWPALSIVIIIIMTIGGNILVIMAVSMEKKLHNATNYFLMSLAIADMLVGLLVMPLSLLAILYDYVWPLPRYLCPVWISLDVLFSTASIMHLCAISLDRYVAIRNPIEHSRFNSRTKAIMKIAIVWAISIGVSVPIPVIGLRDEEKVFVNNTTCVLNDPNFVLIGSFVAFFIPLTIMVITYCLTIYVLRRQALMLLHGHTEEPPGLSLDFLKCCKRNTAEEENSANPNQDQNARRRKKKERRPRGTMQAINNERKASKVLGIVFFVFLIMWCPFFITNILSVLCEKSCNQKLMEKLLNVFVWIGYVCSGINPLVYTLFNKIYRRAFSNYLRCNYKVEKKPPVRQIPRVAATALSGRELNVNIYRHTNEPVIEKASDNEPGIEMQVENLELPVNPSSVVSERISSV
Procedure: (§1) All cloning steps were performed using NEB Builder (New England Biolabs, Frankfurt/Main, Germany). GCamP6s was cloned into pcDNA3.1. GCaMP is a genetically encoded calcium indicator which allows measurement of calcium flux. To allow for visual inspection of co-expressed 5-HT2 receptors, the enhanced cyan fluorescent protein (eCFP) was added to the C-Terminus of the 5-HT2 receptors. The resulting constructs were then cloned into pcDNA4-TO to allow tetracycline dependent expression.
(§2) In a first step, HEK293 cells were transfected with pcDNA6-TR and cells stably expressing the Tet-repressor were selected by the addition of blasticidin (60 µg ml^−1). In a second step, one of the resulting clones was transfected with one of the 5-HT2 receptor constructs and stable clones were selected by the addition of zeocin (150 µg ml^−1). Suitable clones were selected by visual inspection of the eCFP signal at the plasma membrane. In a last step, the eCFP positive clones were transfected with GCamp6s, and stable clones were selected using G418 (250 µg ml^−1). The resulting clones were sorted via FACS to isolate GCaMP6s (green fluorescent protein) positive cells and the resulting polyclonal cell lines were used for further experiments. Cells were maintained in DMEM supplemented with 2% fetal bovine serum, blasticidin, zeocin, and G418 at concentrations described above. To induce receptor expression, tetracycline (1 µg ml^−1) was added to the medium 18–24 h prior to the experiment.
(§3) Imaging experiments were performed at room temperature (22–27 °C). Medium was exchanged for KHB 10 min prior to the experiment and cells were continuously superfused with KHB, using a fast superfusion device (DAD12, ALA Scientific, Farmingdale, NY, USA). Test drugs (0.1, 1, 10 µM) or 5-HT (1 µM) were applied for 30 s, interleaved by KHB superfusion for 300 s. GCamp6s fluorescence was monitored using an inverted microscope (Nikon Eclipse Ti2) equipped with a Nikon ×40 WI (NA 1.25) objective (Nikon Europe, Amsterdam, Netherlands). Fluorescence was excited using a 470 nm LED (Coolled pe4000, Coolled, Andover, NY, USA). Excitation light was filtered through a 480/20 nm bandpass filter and reflected via 505 nm dichroic mirror. Emission light was filtered using a 535/25 nm optical bandpass filter (Nikon Europe, Amsterdam, Netherlands). Images were taken at a frequency of 1 image s^−1 with an exposure time of 20–30 ms using an sCMOS camera (Andor Zyla 5.5, Oxford Instruments, Abingdon, UK) and NIS-Elements 5.2 software (Laboratory Imaging, Praha, Czech Republic).
(§4) Image Stacks were background corrected by subtracting the mean intensity of […]. For each image the mean fluorescence intensity of 1–5 ROIs consisting of several clustered cells was measured. The change in intensity of the GCamP6s fluorescence was calculated as the intensity at the end of test drug application minus the intensity before substance application, normalized to the increase of fluorescence evoked by the application of 1 µM 5-HT. Data represent 1–5 fields of view from three independent experiments

[2] = molecular target: T2, 5-HT2A receptor (Homo sapiens, UniProt P28223); assay: as above; details: GCamP6s fluorescence normalized to 1 µM 5-HT
T2 construct: expressed in transfected cells
T2 sequence (P28223 whole entry): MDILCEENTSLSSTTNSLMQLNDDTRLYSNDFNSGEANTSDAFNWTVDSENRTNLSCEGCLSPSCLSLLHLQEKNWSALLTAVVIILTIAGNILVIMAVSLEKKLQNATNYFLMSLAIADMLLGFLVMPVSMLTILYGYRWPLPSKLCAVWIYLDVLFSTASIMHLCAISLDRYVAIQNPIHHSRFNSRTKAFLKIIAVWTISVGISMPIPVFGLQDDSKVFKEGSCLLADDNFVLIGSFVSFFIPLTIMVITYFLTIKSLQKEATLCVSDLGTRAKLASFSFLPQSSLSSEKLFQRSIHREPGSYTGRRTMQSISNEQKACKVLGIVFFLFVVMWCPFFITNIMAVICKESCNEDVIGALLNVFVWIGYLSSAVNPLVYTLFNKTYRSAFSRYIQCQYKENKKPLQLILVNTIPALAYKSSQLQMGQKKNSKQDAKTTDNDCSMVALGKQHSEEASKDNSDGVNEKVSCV
Procedure: as §1, §2, §3, §4

[3] = molecular target: 5-HT2B receptor (Homo sapiens, UniProt P41595); assay: as above; details: GCamP6s fluorescence normalized to 1 µM 5-HT
Sequence of 5-HT2B receptor (P41595 whole entry): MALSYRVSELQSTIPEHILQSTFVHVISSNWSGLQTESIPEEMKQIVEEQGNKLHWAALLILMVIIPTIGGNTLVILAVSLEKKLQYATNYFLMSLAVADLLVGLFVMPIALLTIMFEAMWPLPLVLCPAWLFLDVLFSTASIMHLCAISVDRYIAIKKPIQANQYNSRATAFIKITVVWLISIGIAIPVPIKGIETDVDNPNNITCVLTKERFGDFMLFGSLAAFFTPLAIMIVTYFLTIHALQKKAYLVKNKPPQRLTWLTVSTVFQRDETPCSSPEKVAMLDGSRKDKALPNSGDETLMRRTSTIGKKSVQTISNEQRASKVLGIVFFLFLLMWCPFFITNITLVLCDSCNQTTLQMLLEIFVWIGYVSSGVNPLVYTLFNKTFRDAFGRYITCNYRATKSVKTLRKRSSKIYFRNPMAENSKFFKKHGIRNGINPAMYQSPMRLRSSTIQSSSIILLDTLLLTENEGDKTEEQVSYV
Procedure: as §1, §2, §3, §4

[4] = test system: VMATs; assay: VMAT uptake inhibition assay in PC12 cells; details: all at 30 µM, relative to inhibition by 30 µM reserpine
Procedure: VMAT uptake inhibition assays were conducted as previously described, with some modifications. In brief, […] PC12 cells per well were seeded in 24-well plates the day before experimentation. The cells were pretreated with 100 nM nisoxetine and mazindol to inhibit non-specific binding. PC12 cells were then preincubated with 200 µM digitonin to permeabilize membranes and were kept at room temperature on a plate shaker at low velocity for 30 min. Cells were treated with test drugs and shaken for another 10 min. Tritiated substrate (0.05 µM [^3H]5-HT) was added, and the cells incubated on the plate shaker for 30 min. To terminate uptake, cells were transferred into 1.5 ml Eppendorf tubes, centrifuged at 5000 rpm for 5 min. The supernatant was aspirated, cells were washed with cold KHB, recentrifuged and lysed with 200 µl SDS. The solutions were transferred into vials containing 2 ml scintillation cocktail and radioactivity was determined via beta-scintillation counting (Perkin Elmer, Waltham, MA, USA). For analysis, inhibitory potency of test drugs was normalized to uptake inhibition caused by the potent VMAT inhibitor reserpine.

[5] = molecular target: T3, human SERT (Homo sapiens, UniProt P31645); assay: [3H]5-HT release assay in HEK293 cells (superfusion); details: 10 µM, SERT-expressing HEK293 cells
T3 construct: expressed in transfected cells
T3 sequence (P31645 whole entry, the tested form may be a part): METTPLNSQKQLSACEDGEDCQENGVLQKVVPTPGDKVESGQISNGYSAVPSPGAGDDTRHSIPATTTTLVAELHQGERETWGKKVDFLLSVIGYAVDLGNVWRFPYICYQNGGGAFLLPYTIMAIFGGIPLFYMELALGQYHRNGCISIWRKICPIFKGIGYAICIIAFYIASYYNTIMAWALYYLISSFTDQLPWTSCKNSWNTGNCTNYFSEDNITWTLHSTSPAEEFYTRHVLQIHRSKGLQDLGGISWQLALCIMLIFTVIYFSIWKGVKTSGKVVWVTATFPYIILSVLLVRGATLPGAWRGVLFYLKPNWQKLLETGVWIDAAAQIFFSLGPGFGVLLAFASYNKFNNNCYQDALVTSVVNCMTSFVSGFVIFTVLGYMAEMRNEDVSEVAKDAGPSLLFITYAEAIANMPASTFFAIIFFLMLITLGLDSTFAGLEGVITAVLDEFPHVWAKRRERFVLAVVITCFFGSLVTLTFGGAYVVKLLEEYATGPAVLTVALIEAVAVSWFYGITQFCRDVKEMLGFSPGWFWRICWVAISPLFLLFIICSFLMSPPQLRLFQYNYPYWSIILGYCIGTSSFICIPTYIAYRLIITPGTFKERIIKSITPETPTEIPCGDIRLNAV
Procedure: HEK293 cells stably expressing SERT were seeded onto PDL-coated glass coverslips (5 mm diameter) that were placed into 96-well plates at a density of 40,000 cells per well the day before the experiment. Cells were preloaded with [^3H]5-HT (0.4 µM, 20 min at 37 °C). Subsequently, the cells were transferred into small chambers with a total volume of 200 µl and superfused with KHB at a flow rate of 0.7 ml per min for 40 min to establish a stable baseline before the collection of 2-min fractions was initiated. For each experiment, three basal fractions were collected before the cells were exposed to various concentrations (given in the figure legends) of the test drugs for five fractions. Subsequently, the cells were superfused with 1% SDS for three final fractions that served to determine the total amount of radioactivity present within the cells at the end of each experimental run. The amount of tritium within each fraction was determined by liquid scintillation counting, and release was expressed as percentage of radioactivity released in relation to the total radioactivity present at the beginning of that fraction. Observations from superfusion experiments were excluded in case of premature exposure to SDS.

SMILES	activation of 5-HT2C receptor [1]	activation of 5-HT2A receptor ([2]; 1 µM)	activation of 5-HT2A receptor ([2]; 10 µM)	activation of 5-HT2B receptor ([3]; 1 µM)	activation of 5-HT2B receptor ([3]; 10 µM)	inhibition of VMAT-mediated transport compared to MDMA [4]	effect on release of preloaded [3H]5-HT [5]
Cc1ccc(C(=O)[C@H](C)N)cc1 [S-4-MC, 4-methylcathinone]	neither test drug activated	neither test drug activated	displayed activity	neither test drug activated	moderate effects	significantly less effective	robustly increased
CN[C@@H](C)C(=O)c1ccc(C(F)(F)F)cc1 [S-4-TFMMC, 4-trifluoromethyl-N-methylcathinone]	neither test drug activated	neither test drug activated	–	neither test drug activated	–	significantly less effective	robustly increased
